# Source: patent publication US12351877B2, “Systems and methods for determining a treatment course of action” (Arizona Board of Regents on Behalf of the University of …, priority 2018, dated 2025)
# Columns and labels:
# T47D cells = assay: Live-cell TIRFM of SCABs before and after inhibiting contractility; assay type: cell-based, human; conditions: 25 uM ROCK inhibitor
# Description: (§1) The relationship between cortical contractility and membrane motility dynamics was further examined. Using live-cell Total Internal Reflection Fluorescence Microscopy (TIRFM), SCABs at the leading edge of MCF7 and T47D cells were imaged before and after inhibiting contractility using the ROCK inhibitor, Y-27632; the actin cytoskeleton was labeled with iRFP-Lifeact, and SCABs with MLC-mRuby2. […] In addition, the existence of SCABs, their contractile nature, and their suppressive effects were validated in two types of epithelial cells: MDCK canine kidney epithelial cells, and Caco-2 human intestinal epithelial cells (FIGS. 3c and 3d). […] ER is potentially enriching for SCABs by inducing the expression of actin regulators that promote SCAB formation.
# MCF7 cells = assay: as above; assay type: cell-based, human; conditions: 25 uM ROCK inhibitor
# Description: as §1
# [1] = system: MDCK canine kidney epithelial cells; assay: Leading edge kymography before and after dissolving SCABs; assay type: cell-based; conditions: 25 μM ROCK inhibitor, dissolution of SCABs
# Description: as §1
# [2] = system: Caco-2 human intestinal epithelial cells; assay: as above; assay type: cell-based; conditions: 25 μM ROCK inhibitor, dissolution of SCABs
# Description: as §1
compound,measurement,setting,value
C[C@@H](N)[C@H]1CC[C@H](C(=O)Nc2ccncc2)CC1 [Y-27632],SCABs,T47D cells,dissolution of SCABs
same,MLC at the leading edge,T47D cells; MLC-mRuby2,loss of MLC
same,protrusive activity,T47D cells; iRFP-Lifeact,rapid increase
same,SCABs,MCF7 cells,dissolution of SCABs
same,MLC at the leading edge,MCF7 cells; MLC-mRuby2,loss of MLC
same,protrusive activity,MCF7 cells; iRFP-Lifeact,rapid increase
same,motility dynamics of the leading edge,[1],dramatically increased
same,motility dynamics of the leading edge,[1]; listed as ROCK inhibitor,increased
same,motility dynamics of the leading edge,[2],dramatically increased
same,motility dynamics of the leading edge,[2]; listed as ROCK inhibitor,increased
